Experimental data taken from US10344019B2 (priority 2010, dated 2019).

Experiments:
Assay in all cases: microbe, parasite or virus in culture
Assay type in all cases: cell-based
[1] = test system: HCV 1b RLuc cells (dicistronic genotype 1b Con1 replicon, RLuc reporter); settings: Hepatitis C virus, read-out: 1b (nM)
Summary of the method: (§1)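 Replicons used: genotype 1b Con1, 1a H77, 2a JFH-1, and a 2a JFH-1 chimera with J6-strain NS5A (M31 present), all dicistronic.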

[2] = test system: HCV 4a Rluc cells (NS5A chimeric genotype 1b Con1 replicon with genotype 4a NS5A gene); settings: Hepatitis C virus, read-out: 4a
Summary of the method: (§2)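 Replicon cells stably carrying the listed RLuc-encoding dicistronic replicons were seeded and treated with DMSO serial dilutions of compound (10 mM stocks) diluted into culture medium. After 72 h, cells were lysed and Renilla luciferase activity measured. EC50 was derived by non-linear regression.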

[3] = test system: HCV 2a JFH-1 Rluc cells (dicistronic genotype 2a JFH-1 replicon, RLuc reporter); settings: Hepatitis C virus, genotype 2a JFH-1 replicon; read-out: 2a JFH
Summary of the method: as §1

[4] = test system: HCV 3a RLuc cells (NS5A chimeric genotype 1b Con1 replicon with consensus genotype 3a NS5A gene); settings: Hepatitis C virus, read-out: 3a, genotype 3a replicon
Summary of the method: as §2

[5] = test system: HCV 1a RLuc cells (dicistronic genotype 1a H77 replicon, RLuc reporter); settings: Hepatitis C virus, genotype 1a replicon; read-out: 1a
Summary of the method: as §1

Compound | EC50 [1] | EC50 [2] | EC50 [3] | EC50 [4] | EC50 [5]
COC(=O)N[C@H](C(=O)N1CCC[C@H]1c1ncc(-c2ccc(-c3ccc4c(ccc5nc([C@@H]6CCCN6C(=O)[C@@H](NC(=O)OC)C(C)C)[nH]c54)c3)c(C#CC3CC3)c2)[nH]1)C(C)C [Example 349] | 0.005 nM | 0.001 to 0.99 nM | 0.001 to 0.999 nM | 0.001 to 0.99 nM | 0.001 to 0.999 nM
COC(=O)N[C@H](C(=O)N1CCC[C@H]1c1nc2ccc3cc(-c4ccc(-c5cnc([C@@H]6CCCN6C(=O)[C@@H](NC(=O)OC)C6CCOCC6)[nH]5)cc4C#CC4CC4)ccc3c2[nH]1)C(C)C [Example 350] | 0.02 nM | 0.001 to 0.99 nM | 0.001 to 0.999 nM | 0.001 to 0.99 nM | 0.001 to 0.999 nM
COC(=O)N[C@H](C(=O)N1CCC[C@H]1c1nc2ccc3cc(-c4ccc(-c5cnc([C@@H]6CCCN6C(=O)[C@H](NC(=O)OC)c6ccccc6)[nH]5)cc4C#CC4CC4)ccc3c2[nH]1)C(C)C [Example 351] | 0.008 nM | 0.001 to 0.99 nM | 0.001 to 0.999 nM | 0.001 to 0.99 nM | 0.001 to 0.999 nM
COC(=O)N[C@H](C(=O)N1CCC[C@H]1c1nc(Cl)c(-c2ccc(-c3ccc(-c4[nH]c([C@@H]5CCCN5C(=O)[C@@H](NC(=O)OC)C5CCOCC5)nc4Cl)cc3)cc2)[nH]1)C1CCOCC1 [Example 353] | 0.493 nM | 0.001 to 0.99 nM | 0.001 to 0.999 nM | 0.001 to 0.99 nM | 0.001 to 0.999 nM
COC(=O)N[C@H](C(=O)N1CC2(C[C@H]1c1ncc(-c3ccc(-c4ccc5c(ccc6nc([C@@H]7CCCN7C(=O)[C@H](NC(=O)OC)c7ccccc7)[nH]c65)c4)cc3)[nH]1)OCCO2)C(C)C [Example 354] | 0.031 nM | 0.001 to 0.99 nM | 0.001 to 0.999 nM | 0.001 to 0.99 nM | 0.001 to 0.999 nM
COC(=O)N[C@H](C(=O)N1CCC[C@H]1c1ncc(-c2ccc(-c3ccc(-c4[nH]c([C@@H]5CCCN5C(=O)[C@@H](NC(=O)OC)C(C)C)nc4Cl)cc3)cc2)[nH]1)C(C)C [Example 359] | 0.011 nM | 0.001 to 0.99 nM | 0.001 to 0.999 nM | 0.001 to 0.99 nM | 0.001 to 0.999 nM
COC(=O)N[C@H](C(=O)N1CCC[C@H]1c1nc(Cl)c(-c2ccc(-c3ccc(-c4[nH]c([C@@H]5CCCN5C(=O)[C@@H](NC(=O)OC)C5CCOCC5)nc4Cl)cc3)cc2)[nH]1)C(C)C [Example 360] | 0.053 nM | 0.001 to 0.99 nM | 0.001 to 0.999 nM | 0.001 to 0.99 nM | 0.001 to 0.999 nM
COC(=O)N[C@H](C(=O)N1CCC[C@H]1c1nc2c([nH]1)-c1ccc(-c3ccc4c(ccc5nc([C@@H]6CC7(CN6C(=O)[C@H](NC(=O)OC)c6ccccc6)OCCO7)[nH]c54)c3)cc1CC2)C(C)C [Example 366] | 0.075 nM | 0.001 to 0.99 nM | 0.001 to 0.999 nM | 0.001 to 0.99 nM | 0.001 to 0.999 nM
COC(=O)N[C@H](C(=O)N1[C@@H]2CC[C@@H](C2)[C@H]1c1nc2ccc3cc(-c4ccc(-c5cnc([C@@H]6C[C@H]7C[C@H]7N6C(=O)[C@@H](NC(=O)OC)C6CCOCC6)[nH]5)cc4)ccc3c2[nH]1)C(C)C [Example 367] | 0.049 nM | 0.001 to 0.99 nM | 0.001 to 0.999 nM | 0.001 to 0.99 nM | 0.001 to 0.999 nM
COC(=O)N[C@H](C(=O)N1[C@@H]2CC[C@@H](C2)[C@H]1c1nc2ccc3cc(-c4ccc(-c5cnc([C@@H]6C[C@H]7C[C@H]7N6C(=O)[C@H](NC(=O)OC)c6ccccc6)[nH]5)cc4)ccc3c2[nH]1)C(C)C [Example 368] | 0.012 nM | 0.001 to 0.99 nM | 0.001 to 0.999 nM | 0.001 to 0.99 nM | 0.001 to 0.999 nM
COC(=O)N[C@H](C(=O)N1CCC[C@H]1c1nc2ccc3cc(-c4ccc5c(c4)CCc4nc(C6CC7(CN6C(=O)[C@H](NC(=O)OC)c6ccccc6)OCCO7)[nH]c4-5)ccc3c2[nH]1)C(C)C (some centres unmarked) [Example 369] | 0.047 nM | 0.001 to 0.99 nM | 0.001 to 0.999 nM | 0.001 to 0.99 nM | 0.001 to 0.999 nM
COC(=O)N[C@H](C(=O)N1CCC[C@H]1c1ncc(-c2ccc(-c3ccc4c(ccc5nc([C@@H]6[C@H]7CC[C@H](C7)N6C(=O)[C@@H](NC(=O)OC)C(C)C)[nH]c54)c3)cc2Cl)[nH]1)C(C)C [Example 371] | 0.007 nM | 0.001 to 0.99 nM | 0.001 to 0.999 nM | > 5 nM | 0.001 to 0.999 nM
CC#Cc1cc(-c2cnc([C@@H]3CCCN3C(=O)[C@@H](NC(=O)OC)C(C)C)[nH]2)ccc1-c1ccc2c(ccc3nc([C@@H]4CCCN4C(=O)[C@@H](NC(=O)OC)C(C)C)[nH]c32)c1 [Example 372] | 0.008 nM | 0.001 to 0.99 nM | 0.001 to 0.999 nM | 0.001 to 0.99 nM | 0.001 to 0.999 nM
